Each sequence was assayed on day 7 skin wounds (assay: In vivo phage display screen of naive CX7C T7 library using microdialysis and HTS). Details: wound microdialysate, first 2 h.
Design: species or system rat
Excerpt: We next adopted microdialysis-based biopanning to identify new wound-penetrating peptides. We used a CX7^trinucC peptide T7 phage library (diversity 3.9 × 10^8) in which random amino acids are encoded by equally represented trinucleotides to prevent codon bias ([Pleiko et al, 2021]). The library was cloned into the genome of the T7 bacteriophage engineered for longer circulation half-life and reduced liver uptake ([Hodyra-Stefaniak et al, 2019]). For biopanning, 3.9 × 10^10 phages (∼100 copies of each phage clone) displaying the C7X^trinucC library were injected in the tail vein of rats with day 7 skin wounds. Microdialysates were collected from probes placed in wounds or normal skin (Table S1). Most of the phage recovery at the microdialysis probe happened during the first 2 h after library dosing. The wound dialysates yielded almost all phages introduced into the two microdialysis probes, only one phage clone was recovered from normal skin dialysate (Table S1). We observed that most of the peptide phage clones appeared in the microdialysate during the first 2 h after phage dosing (Table S1). To obtain representative tissue biodistribution of phage clones in relation to dialysates, the skin wound–bearing rats with no inserted dialysis probes were dosed with the naïve CX7^trinucC peptide library, followed by 30-min circulation, perfusion, collection of organs, and analysis of peptide landscapes. The two dialysates collected during the first 2 h were subjected to HTS (Table S2). Whole tissue samples from the wound with and without the probe (1 + 5 wounds) at 30 min and 5 h, as well as control samples from 14 different tissues (2 × 14) and from normal skin (1 x with and 2 x without probe), and two serum samples at the time of euthanasia (30 min and 5 h after the library injection) were subjected to HTS. […] However, the wound microdialysates contained 13 enriched peptide sequences (Table 2). […] A BLAST analysis on candidate peptide sequences was used to scan for sequence homologies with proteins related to angiogenesis, endocytosis, and wound healing (Table S3).
The phage library used in the in vivo screen with the microdialysis probe was in the 10-3b T7 backbone (5–15 peptide copies per phage), grown in BLT5403 E. coli strain, CsCl-purified, dialyzed in PBS, and filter-sterilized. The library was constructed via trinucleotide synthesis to prevent bias in the amount of different amino acids ([Kayushin et al, 1996]). The diversity of the library was 1 × 10^9 and the titer 5 × 10^10 per ml.
For the in vivo microdialysis, CMA 402 Syringe Pump with Hamilton syringes was used to push and the Harvard P70 peristaltic pump (Harvard Apparatus) to pull the CMA perfusion fluid (CMA Microdialysis AB) and dialysate. Each of the CMA 402 two outputs was connected to the inlet spike of the CMA 12 custom-made 3-MDa probe (CMA Microdialysis AB) via CMA FEP tubing (CMA Microdialysis AB), and the outlet spike of the CMA 12 probe was further connected to Harvard P70 peristaltic pump and further to CMA Probe Shaft Clip (CMA Microdialysis AB) via CMA connector tubing (CMA Microdialysis AB). From the CMA Probe Shaft Clip, the dialysate was pumped into CMA sample tubes (CMA Microdialysis AB). Harvard 0.19-mm-diameter tubing (Harvard Apparatus) and Harvard 3 collar 1.52-mm tubing (Harvard Apparatus) were used with the Harvard P70 peristaltic pump. In addition, CMA tubing adaptors (CMA Microdialysis AB) were used for connecting tubes to syringes and probes. The system was flushed with 70% ethanol before any use.
Male Wistar rats were used for the in vivo validation experiment and the library screen. The rats were 27 wk old and weighed 490 g. Two full-thickness circular wounds were created on a shaved and disinfected skin with a 12-mm-diameter biopsy punch and scissors under sevoflurane anesthesia (Sevoflurane Baxter, Baxter SA) and carprofen analgesia ([…]; Norocarp, Norbrook Laboratories). […]

Sequence | Total counts
CKMLYEYHC | 18 counts
CFCQLMYQC | 13 counts
CLTVLSEQC | 15 counts
CYHDTYPNC | 28 counts
CNYLVEKNC | 23 counts
CDDYQQISC | 21 counts
CLLIYNWSC | 17 counts
CRMKFYSEYC | 11 counts
CLSQTYRIC | 21 counts
CPKKHHLDC | 42 counts

Same assay, conditions: wound microdialysate, first hour after library injection, Ion Torrent HTS, rat 7-d-old wound

Sequence | First hour (counts)
CKMLYEYHC | 1 counts
CFCQLMYQC | 8 counts
CLTVLSEQC | 8 counts
CYHDTYPNC | 14 counts
CNYLVEKNC | 14 counts
CDDYQQISC | 10 counts
CLLIYNWSC | 14 counts
CRMKFYSEYC | 2 counts
CLSQTYRIC | 19 counts
CPKKHHLDC | 19 counts

Same assay, conditions: wound microdialysate, second hour after library injection, Ion Torrent HTS

Sequence | Second hour (counts)
CKMLYEYHC | 17 counts
CFCQLMYQC | 5 counts
CLTVLSEQC | 7 counts
CYHDTYPNC | 14 counts
CNYLVEKNC | 9 counts
CDDYQQISC | 11 counts
CLLIYNWSC | 3 counts
CRMKFYSEYC | 9 counts
CLSQTYRIC | 2 counts
CPKKHHLDC | 23 counts

The sequences below were run on CHO-K cells (assay: Peptide internalization in vitro, confocal imaging, CHO-K cells). Details: FAM-labeled peptide 20 μM, 3 h, 37°C, confocal fluorescence imaging, representative of three experiments.
Type: cell-based, Chinese hamster
Procedure: Figure 1. Microdialysis-captured peptides penetrate the cell membrane. […] CHO-K cells were grown on chamber slides. […] The scale bar is 20 μm. Images are representative of three individual experiments.
Plain growth medium was used as a negative control.

Sequence | cellular uptake in CHO-K cells
CARSKNKDC [FAM-labeled synthetic CAR peptide (…), known cell- and tissue-penetrating homing peptide, reference compound] | accumulate in the CHO-K cells
